# Tests used:
# [1] = system: GN10 Pseudomonas aeruginosa; test: Pre-chequerboard MIC for synergy study (Example 6); assay type: cell-based; settings: ATCC 27853, antibiotic susceptible
# Text: (§1) A chequerboard technique was used to identify possible synergistic or antagonistic interactions between the 4-oxoquinolizines compounds, levofloxacin and polymyxin B. Levofloxacin was included as a control. […] Final dilutions were made in Mueller-Hinton broth, the specific test medium used for MIC determinations according to CLSI guidelines (CLSI. Methods for Dilution Antimicrobial Susceptibility Tests for Bacteria That Grow Aerobically; Approved Standard-Eighth Edition (2009). CLSI Document M07-A8. CLSI, Wayne, Pa. 19087-1898, USA.). The test medium used was a cation-adjusted Mueller-Hinton Broth II (Becton Dickinson UK Ltd., Oxford Science Park, Oxford, UK, OX4 4DQ).
# (§2) The compounds 2, 33 and 35, as well as levofloxacin were tested in combination with polymyxin B on the following isolates: GN31 Acinetobacter baumannii—antibiotic susceptible clinical isolate, GN52 Acinetobacter baumannii—levofloxacin resistant clinical isolate, GN56 Acinetobacter baumannii—levofloxacin resistant clinical isolate, GN48 Klebsiella pneumoniae—NCTC 13443—NDM-1-metallo-β-lactamase and GN10 Pseudomonas aeruginosa—ATCC 27853—antibiotic susceptible reference isolate. All isolates are from the collection maintained at Quotient Bioresearch Ltd., Cambridge, UK.
# (§3) The MIC values for the compounds and polymyxin B and levofloxacin were determined by broth microdilution following CLSI guidelines, and the MICs of agents in combination were determined as described by Pillai et. al (Pillai S K, Moellering R C Jr, Eliopoulis G M; Antimicrobial Combinations in Antibiotics in Laboratory Medicine 5th Edition (V. Lorian Ed) (2005) p 365-440). Initial MIC results were used to determine the microtiter plate patterns for the chequerboards. A suitable doubling dilution concentration range was selected such that the combination antibiotic range was at least two concentrations above and four concentrations below the MIC for each isolate. A fixed range of 0.008 to 8 mg/L was tested for polymyxin B except in the case of A. baumannii GN31 where a range of 0.004 to 4 mg/L was tested when in combination with the compounds 2, 33 and 35 as well as levofloxacin.
# [2] = system: GN31 Acinetobacter baumannii; test: Pre-chequerboard MIC for synergy study (Example 6); assay type: cell-based; settings: antibiotic susceptible clinical isolate
# Text: as §1, §2, §3
# [3] = system: GN48 Klebsiella pneumoniae; test: Pre-chequerboard MIC for synergy study (Example 6); assay type: cell-based; settings: NCTC 13443, NDM-1
# Text: as §1, §2, §3
# [4] = system: GN52 Acinetobacter baumannii; test: Pre-chequerboard MIC for synergy study (Example 6); assay type: cell-based; settings: levofloxacin resistant clinical isolate
# Text: as §1, §2, §3
# [5] = system: GN56 Acinetobacter baumannii; test: Pre-chequerboard MIC for synergy study (Example 6); assay type: cell-based; settings: levofloxacin resistant clinical isolate
# Text: as §1, §2, §3
# [6] = system: S. aureus 25923 HS; test: MIC, standard panel of Gram-positive and Gram-negative strains (Example 2); assay type: cell-based; settings: Staphylococcus aureus, read-out: MIC S. aureus 25923 HS
# [7] = system: E. faecium 19434; test: as above; assay type: cell-based; settings: Enterococcus faecium
# [8] = system: E. coli 25922; test: as above; assay type: cell-based; settings: Escherichia coli
# [9] = system: strains of A. baumannii and one strain of Acinetobacter sp.; test: MIC without polymyxin B, panel of Acinetobacter strains (Example 4); assay type: cell-based; settings: for MIC range without PB Oct. 1, 2006 n = 8: 1st experiment
# [10] = system: A. baumannii ATCC 19606; test: MIC determination for Acinetobacter strains (Example 3); assay type: cell-based, Acinetobacter baumannii; settings: reference strain
# [11] = system: A. baumannii J2; test: as above; assay type: cell-based, Acinetobacter baumannii; settings: LEV R, CIP R
# [12] = system: Acinetobacter spp. H064200250; test: as above; assay type: cell-based, Acinetobacter sp.; settings: LEV R, CIP R, MRP R, IMP I
# [13] = system: A. baumannii A329; test: as above; assay type: cell-based, Acinetobacter baumannii; settings: LEV R, CIP R, MRP R, IMP R, AMK R, TET R
# [14] = system: A. baumannii A489; test: as above; assay type: cell-based, Acinetobacter baumannii; settings: LEV R, CIP R, MRP R, IMP R, AMK R, TET R
# [15] = system: A. baumannii A387; test: as above; assay type: cell-based, Acinetobacter baumannii; settings: LEV I, CIP R, IPM R, AMK R, TET R
# [16] = system: A. baumannii A390; test: as above; assay type: cell-based, Acinetobacter baumannii; settings: LEV R, CIP R, MRP R, IPM I, AMK R, TET I
# [17] = system: A. baumannii A401; test: as above; assay type: cell-based, Acinetobacter baumannii; settings: LEV R, CIP R, AMK R, TET R
# [18] = system: A. baumannii A472; test: as above; assay type: cell-based, Acinetobacter baumannii; settings: LEV R, CIP R, MRP I, IMP I, AMK R, TET R
# [19] = system: A. baumannii A473; test: as above; assay type: cell-based, Acinetobacter baumannii; settings: LEV R, CIP R, MRP R, IMP R, AMK R, TET R
# [20] = system: P. aeruginosa 27853; test: MIC, standard panel of Gram-positive and Gram-negative strains (Example 2); assay type: cell-based; settings: Pseudomonas aeruginosa
# [21] = system: S. pneumoniae 1027; test: MIC, panel of quinolone-resistant strains (Example 2); assay type: cell-based; settings: Streptococcus pneumoniae, LEV R
# [22] = system: E. coli IMP; test: microbe, parasite or virus in culture; settings: Escherichia coli, read-out: MIC E. coli IMP
# [23] = system: S. aureus ATCC 25923; test: MIC, selected panel of bacterial strains (Example 5); assay type: cell-based, Staphylococcus aureus; settings: Staphylococcus aureus, ATCC25923; read-out: MICs against Gram positive bacteria S. aureus ATCC 25923
# [24] = resistant strains, ATCC 19606, A329, A390 and A473 not taken
compound,measurement,setting,value
Polymyxin B [reference compound],Pre-chequerboard MIC GN10 Pseudomonas aeruginosa,[1],1 µg/mL
same,Pre-chequerboard MIC GN31 Acinetobacter baumannii,[2],0.5 µg/mL
same,Pre-chequerboard MIC GN48 Klebsiella pneumoniae,[3],1 µg/mL
same,Pre-chequerboard MIC GN52 Acinetobacter baumannii,[4],0.5 µg/mL
same,Pre-chequerboard MIC GN56 Acinetobacter baumannii,[5],0.5 µg/mL
"Cc1c(-c2ccc(N)cc2)ccn2c(=O)c(C(=O)O)cc(C3CC3)c12 [Compound 8, 8-(4-amino-phenyl)-1-cyclopropyl-9-methyl-4-oxo-quinolizine-3-carboxylic acid]",MIC,[6],0.25 µg/mL
same,MIC,[7],0.5 µg/mL
same,MIC,[8],0.03 µg/mL
same,MIC,"[9]; Acinetobacter baumannii, ATCC19606, read-out: MIC range without PB Oct. 1, 2006 n = 8, 1st experiment, resistant strains, ATCC 19606, A329, A390 and A473 not taken",2 to 32 µg/mL
Imipenem/cilastatin,MIC A. baumannii ATCC 19606,[10],2 µg/mL
same,MIC A. baumannii J2,[11],4 µg/mL
same,MIC Acinetobacter spp. H064200250,[12],16 µg/mL
same,MIC A. baumannii A329,[13],128 µg/mL
same,MIC A. baumannii A489,[14],128 µg/mL
same,MIC A. baumannii A387,[15],16 µg/mL
same,MIC A. baumannii A390,[16],16 µg/mL
same,MIC A baumannii A401,[17],32 µg/mL
same,MIC A. baumannii A472,[18],16 µg/mL
same,MIC A. baumannii A473,[19],32 µg/mL
same,"MIC range without PB Oct. 1, 2006 n = 8",[9]; [24],1 to 128 µg/mL
"Cc1c(-c2ccc(CN)c(F)c2)ccn2c(=O)c(C(=O)O)cc(C3CC3)c12 [Compound 4, 8-(3-fluoro-4-aminomethyl-phenyl)-1-cyclopropyl-9-methyl-4-oxo-quinolizine-3-carboxylic acid]",MIC,[6],0.125 µg/mL
same,MIC,[20],0.5 µg/mL
"Cc1c(-c2ccc(N)cc2)c(F)cn2c(=O)c(C(=O)O)cc(C3CC3)c12 [Compound 7, 8-(4-amino-phenyl)-1-cyclopropyl-7-fluoro-9-methyl-4-oxo-quinolizine-3-carboxylic acid]",MIC,[8],0.03 µg/mL
"Cc1c(-c2cc(F)c(N)cc2F)ccn2c(=O)c(C(=O)O)cc(C3CC3)c12 [Compound 2, 8-(4-amino-2,5-difluorophenyl)-1-cyclopropyl-9-methyl-4-oxo-4H-quinolizine-3-carboxylic acid]",MIC,[6],0.125 µg/mL
same,MIC,[7],0.5 µg/mL
same,MIC,[21],0.5 µg/mL
"Cc1c(-c2ccc(CN)cc2)ccn2c(=O)c(C(=O)O)cc(C3CC3)c12 [Compound 5, 8-(4-aminomethyl-phenyl)-1-cyclopropyl-9-methyl-4-oxo-quinolizine-3-carboxylic acid]",MIC,[6],0.125 µg/mL
same,MIC,[20],0.5 µg/mL
"Cc1c(-c2cc(Cl)c(N)c(Cl)c2)ccn2c(=O)c(C(=O)O)cc(C3CC3)c12 [Compound 3, 8-(3,5-dichloro-4-amino-phenyl)-1-cyclopropyl-9-methyl-4-oxo-quinolizine-3-carboxylic acid]",MIC,[7],0.5 µg/mL
same,MIC,[22],0.06 µg/mL
"C[C@H]1COc2c(N3CCN(C)CC3)c(F)cc3c(=O)c(C(=O)O)cn1c23 [Levofloxacin, reference compound]",MIC,[23],0.125 µg/mL
"8-[(3S)-3-aminocyclopentyl]-1- cyclopropyl-7-fluoro-9-methyl- 4-oxo-quinolizine-3-carboxylic acid [Compound 10, reference compound]","MIC range without PB Oct. 1, 2006 n = 8",[9]; [24],0.5 to 8 µg/mL
same,"MIC range without PB Oct. 14, 2008 n = 11","[9]; 2nd experiment, all strains except the ATCC strain",0.5 to 2 µg/mL
"Cc1c(-c2ccc(CN)cc2)c(F)cn2c(=O)c(C(=O)O)cc(C3CC3)c12 [Compound 6, 8-(4-aminomethyl-phenyl)-1-cyclopropyl-7-fluoro-9-methyl-4-oxo-quinolizine-3-carboxylic acid]",MIC,[6],0.25 µg/mL
same,MIC,[22],0.03 µg/mL

# From US20190105367A1, “ANTIMICROBIAL 4-OXOQUINOLIZINES” (Emergent Product Development Gaithersburg Inc., priority 2011, published 2019)
